Reference: article PMC3502614 (Science (New York, N.Y.), 2011)

Target: T1, M. smegmatis RpsA (Mycolicibacterium smegmatis, UniProt A0QYY6)
T1 sequence (A0QYY6 1-479): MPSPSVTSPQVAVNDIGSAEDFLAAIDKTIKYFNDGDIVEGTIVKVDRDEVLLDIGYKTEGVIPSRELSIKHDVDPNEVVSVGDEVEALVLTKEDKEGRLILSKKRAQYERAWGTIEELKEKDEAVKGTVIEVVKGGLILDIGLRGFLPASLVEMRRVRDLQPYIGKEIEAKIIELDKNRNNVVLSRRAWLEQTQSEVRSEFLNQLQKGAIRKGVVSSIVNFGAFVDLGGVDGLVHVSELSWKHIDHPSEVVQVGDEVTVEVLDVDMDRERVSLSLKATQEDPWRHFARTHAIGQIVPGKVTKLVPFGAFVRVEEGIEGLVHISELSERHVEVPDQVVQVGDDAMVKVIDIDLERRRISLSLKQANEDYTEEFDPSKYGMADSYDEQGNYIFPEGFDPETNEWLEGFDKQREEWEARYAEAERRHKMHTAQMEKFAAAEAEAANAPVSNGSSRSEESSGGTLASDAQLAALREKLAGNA
Test: isothermal titration calorimetry
Format: binding

SMILES: O=C(O)c1cnccn1 [POA, 2-pyrazinecarboxylic acid]
- weak binding by ITC: RpsA from naturally PZA-resistant M. smegmatis bound to POA only very weakly
